The structures appear in SMILES notation. Some results are limits rather than exact numbers.

Test [1] has as its system nuclear symmetric Arginine dimethylation in A549 cells. Nature of the test: PD assay (assay 2): inhibition of nuclear symmetric Arginine dimethylation (SYM10 immunohistochemistry), 48 h. The conditions noted are these: Homo sapiens, A549, averaged values; PD assay, A549 cells, symmetric Arginine dimethylation; read-out: pIC50 Assay 2 (converted). It counts as cell-based. The protocol: Experimental Procedure PD Assay (Assay 2)
A549 cells (ATCC, Cat #CCL-185) were cultured in Dulbecco's Modified Eagle's Medium (DMEM) (Sigma, Cat #D5796), supplemented with 10% Fetal Calf Serum (FCS) (HyClone™, Cat #SV30160.03), 100 mM Sodium Pyruvate (Sigma, Cat #S8636), 200 mM L-Glutamine (Sigma, Cat #G7513) and 50 mg/mL gentamycin (Gibco, Cat #15750-037).
Reagents used for buffers were purchased: Dulbecco's phosphate buffered saline (DPBS) without Ca/Mg (Sigma, Cat #D8537), phosphate buffered saline (PBS) 10× (Roche, Cat #11 666 789 001), Formalin solution 10% (Sigma, HT50-1-128-4L), Methanol 100% (Sigma, Cat #32213-2.5L), Triton X-100 (Acros, Cat #215680010), Bovine Serum Albumin (BSA) (Sigma, Cat #A2153), Alexa fluor 488 goat anti-rabbit antibody (Life Technologies, Cat #A11034), HCS CellMask Deep Red Stain (Life Technologies, Cat #H32721), Hoechst Stain (Life Technologies, Cat #33258), Anti-dimethyl-Arginine, sym (SYM10) antibody (Millipore, 07-412).
Immunohistochemistry Procedure
Cells were plated at 400 cells/40 μL/well in 384 well black μplates clear bottom (Perkin Elmer) and overnight incubated at 37° C., 5% CO2. […] 80 nL of the respective dilution of the compounds was added using the Labcyte POD 810 (Labcyte) reaching a final DMSO concentration of 0.2% in cell culture. After an incubation period of 48 h at 37° C. and 5% CO2, cells were fixed in 10% formalin solution for 15 min at room temperature and 20 min in ice-cold methanol, after which they were washed 3× in DPBS. Subsequently, the cells were blocked for 1 h in blocking buffer (PBS+1% BSA and 0.5% Triton X-100) and incubated overnight at 4° C. with the SYM10 antibody diluted 1/2000 in blocking buffer. The cells were washed 3× with washing buffer (PBS+0.1% Triton X-100) and incubated with the Alexa fluor 488 goat anti-rabbit antibody diluted 1/200 in blocking buffer for 1 h at room temperature. Subsequently, they were washed 3× with washing buffer and incubated for 30 min at room temperature with PBS containing a 1/5000 dilution of Hoechst Stain and a 1/5000 dilution of the HCS CellMask Deep Red Stain. After a final wash with PBS, the plates were imaged using the 10×W lens of the Opera® system (Perkin Elmer Life Sciences) using following settings (values in nm):
In the above equations, the following variable names are used: […]
In the above equations, the following controls were used for normalization: […]
Low control: minimum level of symmetrically dimethylated Arginines (cells treated with reference compound at 10 μM).
High control: maximum level of symmetrically dimethylated Arginines (DMSO treated cells).
IC50 and pIC50 (−log IC50) values were calculated using the appropriate software.
The pIC50 values in the Table below are averaged values (Co. No. means compound number; n.d. means not determined).

For the next test, the target named is T1, PRMT5-MEP50 enzyme (Homo sapiens, UniProt O14744).
T1 construct: One virus expresses full length human PRMT5 with Flag-tag at N-terminus; Flag (N); purchased Charles River (Argenta); host or cells: insect cells (Sf9), baculovirus co-infection
As to the kind of experiment: In vitro assay 1b: high throughput mass spectrometer assay of SAH formation, 1.25 nM enzyme, 120 min. The conditions noted are these: averaged values; PRMT5-MEP50, 1.25 nM enzyme, 120 min; read-out: pIC50 Assay 1b (converted). It is filed as biochemical. An excerpt:
Experimental Procedures In Vitro Assay (Assay 1a and 1b)
PRMT5-MEP50 enzyme was purchased from Charles River (Argenta). The enzyme complex was produced in insect cells (Sf9) infected simultaneously with two baculoviruses. One virus expresses full length human PRMT5 with Flag-tag at N-terminus, the second virus expresses full length MEP50 with His6-TEV cleavage at N-terminus. The protein was affinity purified using anti-Flag (M2) beads eluted with 3×FLAG peptide, followed by His-Select eluted with 0.5M imidazole. Eluted protein was then dialysed against tris-buffered saline (TBS) (pH 8.0) containing 20% glycerol and 3 mM dithiothreitol (DTT).
Full-length untagged human recombinant histone H2A (residues 1-130, Genbank Accession #NM_021052 MW=14.1 kDa) expressed in E. coli was purchased from Reaction Biology Corporation, Cat #HMT-11-146. Reagents used for making reaction buffer or stopping reaction were purchased including Tris base (Sigma Cat #T-1503), NaCl (Sigma Cat #RGF-3270), MgCl2 (Sigma Cat #M0250), DTTI (Invitrogen Cat #15508-013) and Formic Acid (Riedel deHaen, Cat #33015)
High Throughput Mass Spectrometer Assay
PRMT5 catalyzes the sequential methylations of the terminal nitrogen atoms on the guanidine groups of arginine residues within proteins using co-substrate S-adenosyl-L-methionine (AdoMet, SAM), forming mono-methyl (MMA), symmetric-dimethyl arginine (sDMA) and S-adenosyl-L-homocysteine (AdoHcy, SAH). The enzyme activity was determined by following the product SAH formation using high throughput mass spectrometry (Agilent Rapidfire 300 System coupled to a Sciex 4000 series QTrap® triple-quad MS/MS). The reaction buffer was 20 mM Tris-HCl, pH 8.5, 50 mM NaCl, 5 mM MgCl2 and 1 mM DTT. The reaction activity was stopped using 1% formic acid (final concentration).
The IC50 Studies were performed using eleven point dosing series made for each compound by serially diluted 1:2 in dimethyl sulfoxide (DMSO), with point 12 being a DMSO control. Compounds were first spotted to plates, and followed by addition of 2 μM SAM and 0.6 μM H2A (histone H2A) solution mixture. The same volume of enzyme solution was added to initiate the enzymatic reactions. The final concentrations of the reaction are at 1 μM SAM, 0.3 μM H2A and 10 nM enzyme (assay 1a) or 1.25 nM enzyme (assay 1b). The reaction was incubated at 30° C. for 60 minutes (min) when 10 nM enzyme was used and for 120 min when 1.25 nM enzyme was used. Subsequently, the reaction was quenched by addition of formic acid to a final concentration of 1%. The inhibitions of SAH formation in the presence of compounds were calculated as a percentage of the control relative to the uninhibited reaction as a function of inhibitor concentration. The data were fit as follows: Y=Bottom+(Top−Bottom)/(1+10^((log IC50−X)*h))
where IC50 is the inhibitor concentration (same unit as X) at 50% inhibition and h is the Hill slope. Y is percent of inhibition, X is log of compound concentration. Bottom and Top are the plateaus in same units as Y.

T1 sequence (O14744 whole entry): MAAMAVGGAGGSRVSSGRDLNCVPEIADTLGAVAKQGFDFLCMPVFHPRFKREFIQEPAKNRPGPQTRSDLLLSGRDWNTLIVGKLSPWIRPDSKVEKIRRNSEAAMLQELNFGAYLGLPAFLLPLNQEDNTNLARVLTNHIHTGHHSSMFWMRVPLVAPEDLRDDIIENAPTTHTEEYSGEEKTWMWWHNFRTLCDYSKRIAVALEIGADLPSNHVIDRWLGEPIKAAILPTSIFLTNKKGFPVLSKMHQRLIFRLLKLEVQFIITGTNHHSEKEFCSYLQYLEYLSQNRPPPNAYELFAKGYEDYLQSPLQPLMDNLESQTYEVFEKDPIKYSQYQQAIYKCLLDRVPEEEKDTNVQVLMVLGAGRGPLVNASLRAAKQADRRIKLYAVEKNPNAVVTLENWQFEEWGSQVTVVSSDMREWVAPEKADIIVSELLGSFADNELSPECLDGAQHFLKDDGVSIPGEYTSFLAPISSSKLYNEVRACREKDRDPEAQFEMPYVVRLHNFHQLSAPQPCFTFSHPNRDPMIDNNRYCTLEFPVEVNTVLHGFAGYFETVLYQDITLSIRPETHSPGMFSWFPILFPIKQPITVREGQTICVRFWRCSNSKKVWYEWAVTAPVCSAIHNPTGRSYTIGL
T1 sequence (Q9BQA1 whole entry partner): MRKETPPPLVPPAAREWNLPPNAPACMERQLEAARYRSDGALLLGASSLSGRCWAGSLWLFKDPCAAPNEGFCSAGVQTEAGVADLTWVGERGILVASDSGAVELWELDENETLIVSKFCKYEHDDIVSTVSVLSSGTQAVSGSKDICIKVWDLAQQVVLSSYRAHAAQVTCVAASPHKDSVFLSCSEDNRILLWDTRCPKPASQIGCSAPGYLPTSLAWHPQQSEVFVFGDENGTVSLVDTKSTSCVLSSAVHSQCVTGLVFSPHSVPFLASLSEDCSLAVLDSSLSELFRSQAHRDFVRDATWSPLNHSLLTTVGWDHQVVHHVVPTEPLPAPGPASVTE

Turning to `CNc1ncnc2c1ccn2[C@@H]1C[C@H](CCc2ccc3ccc(NC4CC4)nc3c2)[C@@H](O)[C@H]1O` [Compound 179], the IC50 in test [1] was 5.01 nM; on PRMT5-MEP50 enzyme, 0.631 nM.

Turning to `CNc1ccc2ccc(CC[C@H]3C[C@@H](n4ccc5c(OC)ncnc54)[C@H](O)[C@@H]3O)cc2n1` [Compound 180], the IC50 in test [1] is 39.8 nM; on PRMT5-MEP50 enzyme it was 1.26 nM.

As to `COc1ncnc2c1ccn2[C@@H]1C[C@H](CCc2ccc3ccc(NC4CC4)nc3c2)[C@@H](O)[C@H]1O` [Compound 181], the IC50 in test [1] is 39.8 nM; at PRMT5-MEP50 enzyme, 1.26 nM.

With `COc1ncnc2c1ccn2[C@@H]1C[C@H](CCc2ccc3ccc(NCC(F)F)nc3c2)[C@@H](O)[C@H]1O` [Compound 182], the IC50 in test [1] is 316 nM; at PRMT5-MEP50 enzyme, 6.31 nM.

On to `CNc1ncnc2c1ccn2[C@@H]1C[C@H](CCc2ccc3ccc(NC4CCC4)nc3c2)[C@@H](O)[C@H]1O` [Compound 183], for which the IC50 in test [1] was 6.31 nM; on PRMT5-MEP50 enzyme, 0.501 nM.

For `CNc1ncnc2c1ccn2[C@@H]1C[C@H](CCc2ccc3ccc(NCC(F)F)nc3c2)[C@@H](O)[C@H]1O` [Compound 184], the values for the IC50 (in test [1]; on PRMT5-MEP50 enzyme) were 63.1 nM and 2 nM, respectively.

`COc1ncnc2c1ccn2[C@@H]1C[C@H](CCc2ccc3ccc(NCC(F)(F)F)nc3c2)[C@@H](O)[C@H]1O` [Compound 188]: the values for the IC50 (in test [1]; on PRMT5-MEP50 enzyme) were 631 nM and 39.8 nM, respectively.

Regarding `CNc1ncnc2c1ccn2[C@@H]1C[C@H](CCc2ccc3cc(Cl)c(N)nc3c2)[C@@H](O)[C@H]1O` [Compound 194], the IC50 in test [1] is 1.58 nM; at PRMT5-MEP50 enzyme it was 0.631 nM.

As to `COc1ncnc2c1ccn2[C@@H]1C[C@H](CCc2ccc3cc(Cl)c(N)nc3c2)[C@@H](O)[C@H]1O` [Compound 195], the IC50 in test [1] is 25.1 nM; on PRMT5-MEP50 enzyme, 0.501 nM.

As for `CC(C)Nc1ncnc2c1ccn2[C@@H]1C[C@H](CCc2ccc3cc(Cl)c(N)nc3c2)[C@@H](O)[C@H]1O` [Compound 196], the IC50 in test [1] is 100 nM; at PRMT5-MEP50 enzyme, 2 nM.

For `Nc1nc2cc(CC[C@H]3C[C@@H](n4ccc5c(NC6CC6)ncnc54)[C@H](O)[C@@H]3O)ccc2cc1Cl` [Compound 197], the IC50 in test [1] was 31.6 nM; at PRMT5-MEP50 enzyme it was 0.631 nM.

On to `CNc1ncnc2c1ccn2[C@@H]1O[C@H](CCc2ccc3cc(Cl)c(N)nc3c2)[C@@H](O)[C@H]1O` [Compound 198], for which the IC50 in test [1] was 63.1 nM; at PRMT5-MEP50 enzyme it was 3.98 nM.

For `COc1ncnc2c1ccn2[C@@H]1O[C@H](CCc2ccc3cc(Cl)c(N)nc3c2)[C@@H](O)[C@H]1O` [Compound 199], the IC50 is 251 nM in test [1] and 39.8 nM at PRMT5-MEP50 enzyme.

For `COc1ncnc2c1ccn2[C@@H]1C[C@H](CCc2ccc3cc(C(F)(F)F)c(N)nc3c2)[C@@H](O)[C@H]1O` [Compound 200], the IC50 is 1000 nM in test [1] and 6.31 nM at PRMT5-MEP50 enzyme.

Regarding `CNc1ncnc2c1ccn2[C@@H]1C[C@H](CCc2ccc3cc(C(F)(F)F)c(N)nc3c2)[C@@H](O)[C@H]1O` [Compound 201], the IC50 in test [1] is 39.8 nM; on PRMT5-MEP50 enzyme, 1.58 nM.

In the case of `CNc1ncnc2c1ccn2[C@@H]1C[C@H](CCc2ccc3cc(F)c(N)nc3c2)[C@@H](O)[C@H]1O` [Compound 202], the IC50 in test [1] was 15.8 nM; at PRMT5-MEP50 enzyme, 1.58 nM.

`CNc1nc2cc(CC[C@H]3C[C@@H](n4ccc5c(NC)ncnc54)[C@H](O)[C@@H]3O)ccc2cc1F` [Compound 203]: the IC50 was 6310 nM in test [1] and greater than 2510 nM on PRMT5-MEP50 enzyme.

Consider `COc1ncnc2c1ccn2[C@@H]1C[C@H](CCc2ccc3cc(F)c(N)nc3c2)[C@@H](O)[C@H]1O` [Compound 204], for which the results for the IC50 (in test [1]; at PRMT5-MEP50 enzyme) were 63.1 nM and 3.98 nM, respectively.

Consider `CNc1ncnc2c1ccn2[C@@H]1C[C@H](CCc2ccc3ccc(NC(C)C)nc3c2)[C@@H](O)[C@H]1O` [Compound 206], for which the IC50 in test [1] is 25.1 nM; on PRMT5-MEP50 enzyme, 1.58 nM.

`CNc1ncnc2c1ccn2[C@@H]1C[C@H](CCc2ccc3ccc(NCC4CC4)nc3c2)[C@@H](O)[C@H]1O` [Compound 209]: the IC50 in test [1] was 15.8 nM; at PRMT5-MEP50 enzyme, 0.316 nM.

For the compound `COc1ncnc2c1ccn2[C@@H]1C[C@H](CCc2ccc3ccc(NCC4CC4)nc3c2)[C@@H](O)[C@H]1O` [Compound 210], the IC50 was 126 nM in test [1] and 2.51 nM at PRMT5-MEP50 enzyme.

For the compound `C=Cc1ncnc2c1ccn2[C@@H]1C[C@H](CCc2ccc3ccc(NCC4CC4)nc3c2)[C@@H](O)[C@H]1O` [Compound 211], the IC50 in test [1] is roughly 2570 nM; on PRMT5-MEP50 enzyme, 3.16 nM.

On to `Nc1nc2cc(OC[C@H]3C[C@@H](n4ccc5c(N)ncnc54)[C@H](O)[C@@H]3O)ccc2cc1Cl` [Compound 223], for which the results for the IC50 (in test [1]; at PRMT5-MEP50 enzyme) were 1.26 nM and 0.2 nM, respectively.

As for `CNc1ccc2ccc(OC[C@H]3C[C@@H](n4ccc5c(NC)ncnc54)[C@H](O)[C@@H]3O)cc2n1` [Compound 226], the values for the IC50 (in test [1]; at PRMT5-MEP50 enzyme) were 100 nM and 6.31 nM, respectively.

In the case of `CNc1ncnc2c1ccn2[C@@H]1C[C@H](COc2ccc3cc(Br)c(N)nc3c2)[C@@H](O)[C@H]1O` [Compound 237], the IC50 is 6.31 nM in test [1] and 1.58 nM on PRMT5-MEP50 enzyme.

Regarding `CNc1ncnc2c1ccn2[C@@H]1C[C@H](CCc2ccc3cc(Br)c(N)nc3c2)[C@@H](O)[C@H]1O` [Compound 238], the results for the IC50 (in test [1]; at PRMT5-MEP50 enzyme) were 1.26 nM and 0.794 nM, respectively.

For the compound `CNc1ncnc2c1ccn2[C@@H]1O[C@H](CCc2ccc3cc(Br)c(N)nc3c2)[C@@H](O)[C@H]1O` [Compound 239], the IC50 was 25.1 nM in test [1] and 10 nM on PRMT5-MEP50 enzyme.

For `Nc1nc2cc(CC[C@H]3C[C@@H](n4ccc5c(N)nc(Cl)nc54)[C@H](O)[C@@H]3O)ccc2cc1Cl` [Compound 240], the values for the IC50 (in test [1]; on PRMT5-MEP50 enzyme) were less than 1.17 nM and less than 0.2 nM, respectively.
